Series [1] can be described thus: Inhibition of hedgehog signaling (unknown origin) expressed in mouse NIH/3T3 cells by Gli-dual-luciferase reporter assay. The settings on record: NIH3T3. Format: cell-based. Background: Reporter assays use an easily measured gene product as a stand-in for the process of interest.
Series [2] in a line: Inhibition of cell proliferation in mouse ptch+/- and p53-/- medulloblastoma cells after 36 hrs by Brdu assay. Format: functional.
Series [3] in a line: AUC (0 to infinity) in Sprague-Dawley rat plasma at 10 mg/kg, po. Format: ADME, organism-based. Also on record: dose 10 mg/kg, route oral, time infinity.
A short description of series [4]: Systemic clearance in Sprague-Dawley rat plasma at 2 mg/kg, iv. Format: ADME, organism-based.
The test system of the next series is Medulloblastoma cell. Kind of series: Antitumor activity against mouse ptch+/- and p53-/- medulloblastoma cells allografted in athymic nude mouse assessed as tumor growth inhibition at 40 mg/kg, bid administered via oral gavage measured twice per week by microcaliper. Format: functional, organism-based.
Series [5] can be described thus: Cmax in Sprague-Dawley rat plasma at 10 mg/kg, po. Format: ADME, organism-based. Also on record: dose 10 mg/kg, route oral.
The nature of series [6]: Tmax in Sprague-Dawley rat plasma at 10 mg/kg, po. Format: ADME, organism-based.
A short description of series [7]: Half life in Sprague-Dawley rat plasma at 2 mg/kg, iv. Format: ADME, organism-based.
For a further series, the system named is Mus musculus. As to the kind of experiment: Toxicity in athymic nude mouse allografted with mouse ptch+/- and p53-/- medulloblastoma cells assessed as body weight loss at 40 mg/kg, bid administered via oral gavage. Format: organism-based. The settings on record: in vivo.
A short description of series [8]: AUC (0 to infinity) in Sprague-Dawley rat plasma at 2 mg/kg, iv. Format: ADME, organism-based. Also on record: dose 2 mg/kg, time infinity, route intravenous.
A short description of series [9]: Oral bioavailability in Sprague-Dawley rat plasma at 10 mg/kg. Format: ADME, organism-based.
A short description of series [10]: Volume of distribution at steady state in Sprague-Dawley rat plasma at 2 mg/kg, iv. Format: ADME, organism-based. Conditions: read-out: Vdss.

In general, IC50 refers to the concentration that gives 50% inhibition. A lower IC50 goes with inhibition by little substance. As a reminder, the AUC(0-inf) is total exposure, with the tail of the curve extrapolated. A higher AUC(0-inf) goes with high exposure. For orientation: clearance means a measure of how efficiently the substance is removed, as volume per time. Usually Cmax stands for the maximum level reached in the sampled fluid or tissue. For orientation: Tmax means the time at which the peak concentration occurs. Usually half-life stands for the time needed for the level to fall by half in the phase considered. The term bioavailability denotes dose-corrected exposure relative to a reference, in per cent. Read a low bioavailability as poor availability.

The source made the active and inactive calls.

In series [1], `CCOC(=O)c1ccc(N2CCC(Nc3nnc(Cc4ccccc4)c4ccccc34)C2)nc1` (racemic) returned a half-maximal inhibitory concentration (IC50) of 45.7 nM.

Regarding `CS(=O)(=O)c1ccc(C(=O)Nc2ccc(Cl)c(-c3ccccn3)c2)c(Cl)c1` [VISMODEGIB], the IC50 in series [1] stood at 2.3 nM. This IC50 lies about 20-fold lower than the previous one.

In series [1], `CCC(O)(CC)c1ccc(N2CCC(Nc3nnc(Cc4ccccc4)c4ccccc34)C2)nc1` (racemic) gave an IC50 of 3.91 nM.

In series [1], `CC(=O)c1ccc(N(C)C2CCN(c3nnc(Cc4ccccc4)c4ccccc34)CC2)nc1` had a half-inhibitory concentration (IC50) of more than 1000 nM.

In turn, `CC(=O)c1ccc(NC2CCN(c3nnc(Cc4ccccc4)c4ccccc34)CC2)nc1` yielded an IC50 in [1] of 2.45 nM.

In [1], `CC(C)(O)c1ccc(NC2CCN(c3nnc(Cc4ccccc4)c4ccccc34)C2)nc1` (racemic) gave an IC50 of 3.28 nM.

Take `CCOC(=O)c1ccc(NC2CCN(c3nnc(Cc4ccccc4)c4ccccc34)C2)nc1` (racemic): in series [1], the midpoint of inhibition, the IC50, lay at 8.76 nM.

For `CC(C)(O)c1ccc(OC2CN(c3nnc(Cc4ccccc4)c4ccccc34)C2)nc1`, 648 nM corresponded to half-maximal inhibition in [1] (IC50).

Compound `CC(C)(O)c1ccc(NC2CCCN(c3nnc(Cc4ccccc4)c4ccccc34)C2)nc1` (racemic) yielded a 50% inhibitory concentration (IC50) in series [1] of more than 1000 nM.

As for `CCC(O)(CC)c1ccc(NC2CCN(c3nnc(Cc4ccccc4)c4ccccc34)CC2)nc1`, 10.3 nM corresponded to half-maximal inhibition in series [1] (IC50).

`CC(C)(O)c1ccc(NC2CCN(c3nnc(Cc4ccccc4)c4ccccc34)CC2)nc1`: the figures for the IC50 in [2] and in series [1] were 38 nM and 0.58 nM, respectively. Besides, the AUC(0-inf) in series [3] came to 3.28 µM·h; in series [8], 1.64 µM·h. The clearance in [4] was found to be 42.1 mL/min/kg. For the same compound, in the series with Medulloblastoma cell, the TGI result was “Active”. In [5], the Cmax is 950 nM. In addition, in series [6], the Tmax is 2 h. Moreover, the half-life in series [7] was 1.03 h. Also, the Activity result in the series with Mus musculus is reported as “Non-toxic”. The compound also gave a bioavailability in [9] of 40.1%. Further, the Vd in [10] came to 2.16 L/kg.

For `CCC(O)(CC)c1ccc(NC2CCN(c3nnc(Cc4ccccc4)c4ccccc34)C2)nc1` (racemic), in series [1], the midpoint of inhibition, the IC50, lay at 2.97 nM.

In series [1], `CN(c1ccc(C(C)(C)O)cn1)C1CCN(c2nnc(Cc3ccccc3)c3ccccc23)CC1` displayed a concentration for half-maximal inhibition (IC50) of 6.66 nM.

In [1], `CCOC(=O)c1ccc(NC2CCCN(c3nnc(Cc4ccccc4)c4ccccc34)C2)nc1` (racemic) had an IC50 of more than 1000 nM.

`CC(C)(O)c1ccc(N2CCC(Nc3nnc(Cc4ccccc4)c4ccccc34)C2)nc1` (racemic) had an IC50 in series [1] of 9.66 nM.

Turning to `CC(C)(O)c1ccc(N2CC3(C2)CN(c2nnc(Cc4ccccc4)c4ccccc24)C3)nc1`, in [1], the 50% inhibitory concentration (IC50) is more than 1000 nM.

On to `CC(C)(O)c1ccc(N2CCN(c3nnc(Cc4ccccc4)c4ccccc34)CC2)nc1`, for which the results for the IC50 in [2] and in series [1] were 44.6 nM and 7.1 nM, respectively. The TGI result in the series with Medulloblastoma cell is “Active”.

The values are drawn from ChEMBL document CHEMBL3808323, “Synthesis and evaluation of novel benzylphthalazine derivatives as hedgehog signaling pathway inhibitors” (Bioorg Med Chem Lett, 2016).
